Experimental data reported in patent publication US5866684A, “Peptidyl inhibitors of viral proteases” (Hoffmann-La Roche Inc., priority 1996, dated 1999).
Numbered stars: 1 amine (or outer) side, 2 acyl side, 3 side chain; on linkers, the order of the positions; unused ones are H or OH. Square brackets hold non-standard residues; d marks the D form. Peptide text beside a SMILES is read from it. X1 = CC(F)(F)C[C@H](N[*:1])C(=O)[*:2]; Phe(2-Me) = Cc1ccccc1C[C@H](N)C(=O)O; Suc = O=C(CCC(=O)[*:2])[*:1]; Tle = CC(C)(C)[C@H](N)C(=O)O

Target: T1, HCV proteinase (Hepatitis C virus genotype 1b, UniProt P26662)
T1 construct: Regions encompassing the NS3 proteinase domain (amino acids 1007-1219); made in house; host or cells: E. coli strain MC1061
Assay: HCV proteinase inhibition: cleavage of quenched fluorescence substrate NS4A/B.F peptide by enzyme MBP-NS3"Gly12-NS4A
Format: biochemical
Conditions: enzyme MBP-NS3"Gly12-NS4A 1 μg in 200 μl, pH 8.5, 15 minutes preincubation, NS4A/B.F peptide 10 μM, read after a further 10 minutes
From the text: As mentioned earlier, the compounds of formula I and salts of acidic compounds of formula I with bases are inhibitors of proteases of viral origin.
The nucleotide sequence of this expression plasmid is given in FIGS. 1a-j appended hereto and the amino acid sequence of its expression product is given in FIG. 2 appended hereto. It is based on the pMAL®-c2 vector supplied by New England Biolabs, Inc. (32 Tozer Rd., Beverly, Mass., USA). The principle of the construction was to create an in-frame fusion of the maltose binding protein (MBP) gene supplied by the pMAL-c2 vector, and sequences of the HCV genome necessary for NS3 proteinase activity. These HCV sequences were inserted between the EcoRI and HindIII sites of the pMAL-c2 polylinker (positions 2695 and 3556 respectively of the sequence given in FIGS. 1a-j).
HCV sequences were derived from plasmids pDS 3348-4045 and pBFK 3348-6062, described by Bartenschlager et al, 1993 (Journal of Virology, 67, 3835-3844). Regions encompassing the NS3 proteinase domain (amino acids 1007-1219) and the NS4A domain (amino acids 1658-1711) were isolated and inserted into the pMAL-c2 vector using standard recombinant DNA techniques, including the PCR amplification of required sequences. Between the NS3 and NS4A domains, a linker region was constructed using synthetic oligonucleotides (positions 3343-3390; amino acids 606-621). The resulting plasmid was used to transform E. coli (strain MC1061) cells and expression of the MBP-NS3"Gly12 -NS4A enzyme was induced as described below.
E. coli (strain MC1061) cells transformed with the foregoing plasmid were grown in Luria broth containing ampicillin (100 μg/ml) at 37° C. The cells were grown until an optical density of 0.5 at 600 nm had been reached and enzyme expression was then induced by adding 1 mM isopropylthiogalactoside and incubating at 37° C. for a further 3 hours. The cells were harvested by centrifugation and stored at -80° C.
A pellet from 4 l of bacterial culture was resuspended in E.coli lysis buffer (20 mM Tris HCl, pH 7.5, containing 150 mM NaCl, 1 mM EDTA and 10 mM dithiothreitol) and cell lysis was achieved by two passages through a French Pressure cell. The clear supernatant obtained by centrifugation (18000 g, 30 minutes) was then applied to an amylose resin column (4×1 cm) (New England Biolabs) which had been equilibrated with ice-cold 50 mM Tris HCl, pH 8.5, containing 200 mM NaCl, 1 mM dithiothreitol and 5% glycerol. The column was washed thoroughly with the equilibration buffer and bound protein was eluted using the equilibration buffer containing 10 mM maltose. Fractions of 1 ml were collected, with fractions containing the enzyme being pooled and stored at -80° C. Enzyme concentration was assayed by the method of M. B. Bradford, Analytical Biochemistry, 1976, vol. 72, p.248.
Compounds of formula I (routinely prepared as stock solutions in DMSO) were assayed for their ability to inhibit the cleavage of a quenched fluorescence substrate [NS4A/B.F peptide (N-[4-[4-(dimethylamino)phenylazo]benzoyl]-L-α-aspartyl-L-α-glutamyl-L-methionyl-L-(x-glutamyl-L-α-glutamyl-L-cysteinyl-L-alanyl-L- seryl-L-histidyl-N5-[2-(5-sulpho-1-naphthylamino)ethyl]-L-glutaminamide); Wilkinson et al, Society for General Microbiology Meeting, University of Warwick, England, 28 Mar. 1996] based on the NS4A/4B cleavage site by enzyme MBP-NS3"Gly12 -NS4A in microtitre plates as follows:
The enzyme (1 μg) was added to 200 μl final volume of a mixture containing 50 mM Tris HCl, pH 8.5, with 1 mM dithiothreitol, 0.1% Triton X-100 and the test compound of formula I. The resulting mixture was incubated at room temperature for 15 minutes prior to starting the reaction by the addition of NS4A/B.F peptide to a final concentration of 10 μM. The progress of the reaction was evaluated with a Perseptive Biosystems Cytofluor II using an excitation wavelenth of 360 nm and an emission wavelength of 530 nm. […]

T1 sequence (P26662 1007-1219): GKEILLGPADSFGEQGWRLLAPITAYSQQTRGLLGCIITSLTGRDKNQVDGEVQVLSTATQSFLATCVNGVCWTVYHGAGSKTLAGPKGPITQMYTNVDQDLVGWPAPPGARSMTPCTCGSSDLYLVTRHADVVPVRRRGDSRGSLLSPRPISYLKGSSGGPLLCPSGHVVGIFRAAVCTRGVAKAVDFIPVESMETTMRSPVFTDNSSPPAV

SMILES	IC50 [nM]
C=CCC(C=O)NC(=O)[C@H](CC(C)C)NC(=O)[C@@H](NC(=O)[C@H](Cc1ccccc1C)NC(=O)[C@H](CCC(=O)O)NC(=O)[C@H](CC(=O)O)NC(=O)CCC(=O)O)C(C)(C)C (mixture of isomers) [A, 2(RS)-[[N-[N-[N-[N-[N-(3-carboxypropionyl)-L-α-aspartyl]-L-α-glutamyl]-2-methyl-L-phenylalanyl]-3-methyl-L-valyl]-L-leucyl]amino]-4-pentenaldehyde]	90
Cc1ccccc1C[C@H](NC(=O)[C@H](CCC(=O)O)NC(=O)[C@H](CC(=O)O)NC(=O)CCC(=O)O)C(=O)N[C@H](C(=O)N[C@@H](CC(C)C)C(=O)NC(C=O)CC(F)(F)F)C(C)(C)C (mixture of isomers) [C, 2(RS)-[[N-[N-[N-[N-[N-(3-carboxypropionyl)-L-α-aspartyl]-L-α-glutamyl]-2-methyl-L-phenylalanyl]-3-methyl-L-valyl]-L-leucyl]amino]-4,4,4-trifluorobutyraldehyde]	64
C=CCC(NC(=O)[C@H](CC(C)C)NC(=O)[C@@H](NC(=O)[C@H](Cc1ccccc1C)NC(=O)[C@H](CCC(=O)O)NC(=O)[C@H](CC(=O)O)NC(=O)CCC(=O)O)C(C)(C)C)B(O)O (mixture of isomers) [D, 1(RS)-[[N-[N-[N-[N-[N-(3-carboxypropionyl)-L-α-aspartyl]-L-α-glutamyl]-2-methyl-L-phenylalanyl]-3-methyl-L-valyl]-L-leucyl]amino]-3-butenylboronic acid]	34
CCC(NC(=O)[C@H](CC(C)C)NC(=O)[C@@H](NC(=O)[C@H](Cc1ccccc1C)NC(=O)[C@H](CCC(=O)O)NC(=O)[C@H](CC(=O)O)NC(=O)CCC(=O)O)C(C)(C)C)B(O)O (mixture of isomers) [E, 1(RS)-[[N-[N-[N-[N-[N-(3-carboxypropionyl)-L-α-aspartyl]-L-α-glutamyl]-2-methyl-L-phenylalanyl]-3-methyl-L-valyl]-L-leucyl]amino]propylboronic acid]	38
CCCC(NC(=O)[C@H](CC(C)C)NC(=O)[C@@H](NC(=O)[C@H](Cc1ccccc1C)NC(=O)[C@H](CCC(=O)O)NC(=O)[C@H](CC(=O)O)NC(=O)CCC(=O)O)C(C)(C)C)B(O)O (mixture of isomers) [F, 1(RS)-[[N-[N-[N-[N-[N-(3-carboxypropionyl)-L-α-aspartyl]-L-α-glutamyl]-2-methyl-L-phenylalanyl]-3-methyl-L-valyl]-L-leucyl]amino]butylboronic acid]	160
Cc1ccccc1C[C@H](NC(=O)[C@H](CCC(=O)O)NC(=O)[C@H](CC(=O)O)NC(=O)CCC(=O)O)C(=O)N[C@H](C(=O)N[C@@H](CC(C)C)C(=O)N[C@H](C=O)CC(C)(F)F)C(C)(C)C [B, 2(S)-[[N-[N-[N-[N-[N-(3-carboxypropionyl)-L-α-aspartyl]-L-α-glutamyl]-2-methyl-L-phenylalanyl]-3-methyl-L-valyl]-L-leucyl]amino]-4,4-difluorovaleraldehyde] (Suc-DE[Phe(2-Me)][Tle]L[X1]-aldehyde)	70
